Patent publication US9682995B2, “Amino-substituted isothiazoles” (BAYER PHARMA AKTIENGESELLSCHAFT, priority 2013, dated 2017)

Assays:
[1] = tested on: spindle assembly checkpoint; experiment: SAC-Formation - Nocodazole-Induced Assay; format: cell-based; settings: Homo sapiens; HeLa cells, nocodazole 0.1 μg/ml, 24 h, phosphorylated histone H3 on serine 10
Outline: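 HeLa cells were given nocodazole at 0.1 μg/ml final together with compounds (0.005–20 μM, 0.5% DMSO) for 24 h at 37° C. Mitotic cells were counted by phospho-histone H3 Ser10 immunostaining, with cell number from HOECHST 33342, by high-content imaging. The loss of mitotic cells was fitted with a four-parameter Hill equation.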

CDK2/CycE = CDK2/CycE (Homo sapiens (Human), UniProt P24941); experiment: CDK2/CycE kinase assay (TR-FRET); format: biochemical; settings: 10 μM ATP; read-out: CDK2 avg (IC50 [mol/l])
Outline: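 GST-tagged human CDK2 and GST-CycE from Sf9 cells (~130 ng/ml) were preincubated with compound for 15 min at 22 °C. Reaction with 10 μM ATP and 0.75 μM biotinylated peptide (final) ran 25 min at 22 °C, pH 8.0. Phospho-peptide was read by TR-FRET (665/620 nm ratio, anti-pRB antibody, Eu donor) and normalised to no-enzyme and no-inhibitor controls.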

| Compound | IC50 [1] | IC50 (CDK2/CycE) |
| --- | --- | --- |
| CCc1ccccc1NC(=O)c1c(C)nsc1Nc1cc(C#N)ccn1 [Example 4, 5-[(4-Cyanopyridin-2-yl)amino]-N-(2-ethylphenyl)-3-methyl-1,2-thiazole-4-carboxamide] | 730 nM | > 20000 nM |
| Cc1nsc(Nc2cnc(Br)cn2)c1C(=O)Nc1ccc(F)c(F)c1 [Example 77, 5-[(5-Bromopyrazin-2-yl)amino]-N-(3,4-difluorophenyl)-3-methyl-1,2-thiazole-4-carboxamide] | 18 nM | > 20000 nM |
| COc1ccc(NC(=O)c2c(C)nsc2Nc2nc3ccc(F)cc3s2)cn1 [Example 88, 5-[(6-Fluoro-1,3-benzothiazol-2-yl)amino]-N-(6-methoxypyridin-3-yl)-3-methyl-1,2-thiazole-4-carboxamide] | 820 nM | > 20000 nM |
| COc1cncc(Nc2snc(C)c2C(=O)Nc2ccc(F)c(F)c2)n1 [Example 72, N-(3,4-Difluorophenyl)-5-[(6-methoxypyrazin-2-yl)amino]-3-methyl-1,2-thiazole-4-carboxamide] | 350 nM | > 20000 nM |
| CCNC(=O)c1cncc(Nc2snc(C)c2C(=O)Nc2ccc(F)c(F)c2)n1 [Example 73, 6-({4-[(3,4-Difluorophenyl)carbamoyl]-3-methyl-1,2-thiazol-5-yl}amino)-N-ethylpyrazine-2-carboxamide] | 230 nM | > 20000 nM |
| CCc1ccccc1NC(=O)c1c(C)nsc1Nc1nc(C(=O)OC)co1 [Example 91, Methyl 2-({4-[(2-ethylphenyl)carbamoyl]-3-methyl-1,2-thiazol-5-yl}amino)-1,3-oxazole-4-carboxylate] | 4200 nM | > 20000 nM |
| Cc1nsc(Nc2nc3c(C(F)(F)F)ccnc3s2)c1C(=O)Nc1ccc(F)c(F)c1 [Example 58, N-(3,4-Difluorophenyl)-3-methyl-5-{[7-(trifluoromethyl)[1,3]thiazolo[5,4-b]pyridin-2-yl]amino}-1,2-thiazole-4-carboxamide] | 280 nM | > 20000 nM |
| Cc1nsc(Nc2cncc(-n3cccn3)n2)c1C(=O)Nc1ccc(Cl)c(F)c1 [Example 67, N-(4-Chloro-3-fluorophenyl)-3-methyl-5-{[6-(1H-pyrazol-1-yl)pyrazin-2-yl]amino}-1,2-thiazole-4-carboxamide] | 12 nM | – |
| CCc1ccccc1NC(=O)c1c(C)nsc1Nc1cnc2cc(Cl)ccc2n1 [Example 86, 5-[(6-Chloroquinoxalin-2-yl)amino]-N-(2-ethylphenyl)-3-methyl-1,2-thiazole-4-carboxamide] | 530 nM | > 20000 nM |
| CCc1cnc(Nc2snc(C)c2C(=O)Nc2ccc(F)c(F)c2)cn1 [Example 79, N-(3,4-Difluorophenyl)-5-[(5-ethylpyrazin-2-yl)amino]-3-methyl-1,2-thiazole-4-carboxamide] | 140 nM | > 20000 nM |
| CCc1ccccc1NC(=O)c1c(C)nsc1Nc1nccc(-c2ccccc2)n1 [Example 5, N-(2-Ethylphenyl)-3-methyl-5-[(4-phenylpyrimidin-2-yl)amino]-1,2-thiazole-4-carboxamide] | 1200 nM | > 20000 nM |
| CCc1cncc(Nc2snc(C)c2C(=O)Nc2ccc(F)c(F)c2)n1 [Example 76, N-(3,4-Difluorophenyl)-5-[(6-ethylpyrazin-2-yl)amino]-3-methyl-1,2-thiazole-4-carboxamide] | 52 nM | > 20000 nM |
| Cc1nsc(Nc2cnc3cc(C(F)(F)F)ccc3n2)c1C(=O)Nc1ccc(F)c(F)c1 [Example 60, N-(3,4-Difluorophenyl)-3-methyl-5-{[6-(trifluoromethyl)quinoxalin-2-yl]amino}-1,2-thiazole-4-carboxamide] | 40 nM | > 20000 nM |
| COc1ccc(NC(=O)c2c(C)nsc2Nc2ncc(C(=O)N3CCOCC3)s2)cc1F [Example 93, N-(3-Fluoro-4-methoxyphenyl)-3-methyl-5-{[5-(morpholin-4-ylcarbonyl)-1,3-thiazol-2-yl]amino}-1,2-thiazole-4-carboxamide] | 1400 nM | > 20000 nM |
| CCOC(=O)c1sc(Nc2snc(C)c2C(=O)Nc2ccc(Cl)c(F)c2)nc1C [Example 95, Ethyl 2-({4-[(4-chloro-3-fluoro-phenyl)carbamoyl]-3-methyl-1,2-thiazol-5-yl}amino)-4-methyl-1,3-thiazole-5-carboxylate] | 260 nM | > 20000 nM |
| Cc1nsc(Nc2cnccn2)c1C(=O)Nc1ccc(F)c(F)c1 [Example 65, N-(3,4-Difluorophenyl)-3-methyl-5-(pyrazin-2-ylamino)-1,2-thiazole-4-carboxamide] | 210 nM | > 20000 nM |
| Cc1nsc(Nc2cncc(Cl)n2)c1C(=O)Nc1ccc(F)c(F)c1 [Example 71, 5-[(6-Chloropyrazin-2-yl)amino]-N-(3,4-difluorophenyl)-3-methyl-1,2-thiazole-4-carboxamide] | 94 nM | 8600 nM |
| Cc1nsc(Nc2cncc(-n3cccn3)n2)c1C(=O)Nc1ccc(F)c(F)c1 [Example 64, N-(3,4-Difluorophenyl)-3-methyl-5-{[6-(1H-pyrazol-1-yl)pyrazin-2-yl]amino}-1,2-thiazole-4-carboxamide] | 97 nM | 8400 nM |
| CCOC(=O)c1cnc(Nc2snc(C)c2C(=O)Nc2ccccc2CC)s1 [Example 92, Ethyl 2-({4-[(2-ethylphenyl)-carbamoyl]-3-methyl-1,2-thiazol-5-yl}amino)-1,3-thiazole-5-carboxylate] | 1200 nM | > 20000 nM |
| CCc1ccccc1NC(=O)c1c(C)nsc1Nc1ncccc1C(F)(F)F [Example 3, N-(2-Ethylphenyl)-3-methyl-5-{[3-(trifluoromethyl)pyridin-2-yl]amino}-1,2-thiazole-4-carboxamide] | 3000 nM | > 20000 nM |
| COC(=O)c1cncc(Nc2snc(C)c2C(=O)Nc2ccc(F)c(F)c2)n1 [Example 66, Methyl 6-({4-[(3,4-difluorophenyl)carbamoyl]-3-methyl-1,2-thiazol-5-yl}amino)-pyrazine-2-carboxylate] | 37 nM | > 20000 nM |
| Cc1cncc(Nc2snc(C)c2C(=O)Nc2ccc(F)c(F)c2)n1 [Example 69] | 48 nM | > 20000 nM |
| Cc1nsc(Nc2cnc3cc(C(F)(F)F)ccc3n2)c1C(=O)Nc1ccc(Cl)c(Cl)c1 [Example 61, N-(3,4-Dichlorophenyl)-3-methyl-5-{[6-(trifluoromethyl)quinoxalin-2-yl]amino}-1,2-thiazole-4-carboxamide] | 310 nM | > 20000 nM |

Continued, values first:

| IC50 [1] | IC50 (CDK2/CycE) | Compound |
| --- | --- | --- |
| 99 nM | > 20000 nM | CNC(=O)c1cncc(Nc2snc(C)c2C(=O)Nc2ccc(F)c(F)c2)n1 [Example 70, 6-({4-[(3,4-Difluorophenyl)carbamoyl]-3-methyl-1,2-thiazol-5-yl}amino)-N-methylpyrazine-2-carboxamide] |
| 29 nM | > 20000 nM | Cc1nsc(Nc2cnc(Cl)cn2)c1C(=O)Nc1ccc(F)c(F)c1 [Example 74, 5-[(5-Chloropyrazin-2-yl)amino]-N-(3,4-difluorophenyl)-3-methyl-1,2-thiazole-4-carboxamide] |
| 49 nM | > 20000 nM | Cc1nsc(Nc2cnc3cc(C(F)(F)F)ccc3n2)c1C(=O)Nc1ccc(Cl)c(F)c1 [Example 68, N-(4-Chloro-3-fluorophenyl)-3-methyl-5-{[6-(trifluoromethyl)quinoxalin-2-yl]amino}-1,2-thiazole-4-carboxamide] |
| 9.7 nM | > 20000 nM | Cc1nsc(Nc2cnc(C(F)(F)F)cn2)c1C(=O)Nc1ccc(F)c(F)c1 [Example 81, N-(3,4-Difluorophenyl)-3-methyl-5-{[5-(trifluoromethyl)pyrazin-2-yl]amino}-1,2-thiazole-4-carboxamide] |
| 21 nM | – | Cc1nsc(Nc2cncc(C(F)(F)F)n2)c1C(=O)Nc1ccc(F)c(F)c1 [Example 82, N-(3,4-Difluorophenyl)-3-methyl-5-{[6-(trifluoromethyl)pyrazin-2-yl]amino}-1,2-thiazole-4-carboxamide] |
| 4200 nM | > 20000 nM | CCc1ccccc1NC(=O)c1c(C)nsc1Nc1ccncn1 [Example 2, N-(2-Ethylphenyl)-3-methyl-5-(pyrimidin-4-ylamino)-1,2-thiazole-4-carboxamide] |
| 81 nM | > 20000 nM | COc1ccc(NC(=O)c2c(C)nsc2Nc2cnc3ccccc3n2)cn1 [Example 94, N-(6-Methoxypyridin-3-yl)-3-methyl-5-(quinoxalin-2-ylamino)-1,2-thiazole-4-carboxamide] |
| 81 nM | > 20000 nM | CNC(=O)c1cnc(Nc2snc(C)c2C(=O)Nc2ccc(F)c(F)c2)cn1 [Example 75, 5-({4-[(3,4-Difluorophenyl)carbamoyl]-3-methyl-1,2-thiazol-5-yl}amino)-N-methylpyrazine-2-carboxamide] |
| 1900 nM | > 20000 nM | CNC(=O)c1ccc(Nc2snc(C)c2C(=O)Nc2ccc(F)c(F)c2)nn1 [Example 80, 6-({4-[(3,4-Difluorophenyl)carbamoyl]-3-methyl-1,2-thiazol-5-yl}amino)-N-methylpyridazine-3-carboxamide] |
| 590 nM | > 20000 nM | COc1ccc2nc(Nc3snc(C)c3C(=O)Nc3ccc(OC)nc3)sc2c1 [Example 87, 5-[(6-Methoxy-1,3-benzothiazol-2-yl)amino]-N-(6-methoxypyridin-3-yl)-3-methyl-1,2-thiazole-4-carboxamide] |
